Laboratory results taken from PubChem BioAssay AID1963847 (Molecular Pharmacology Branch, DTP, NCI, 2024).
pIC50: −log10 of the molar value.

Tested on: 415267-285-R-J2-PDC complex spheroid viability
Assay: Anticancer human tumor 415267-285-R-J2-PDC patient-derived breast carcinoma cell line growth inhibition [POLQ]
Conditions: for pIC50: curve of first compound; for viability, T/C: stronger effect = lower value
In short: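 Three-cell-type spheroids modelling solid tumor plus stroma served as the readout system; POL inhibitors were tested individually and in combination, concentration ranges set by clinical Cmax where known.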

[1] = second compound 0.0316 µM, first compound 0.0316 µM
[2] = second compound 0.0316 µM, first compound 0.1 µM
[3] = second compound 0.0316 µM, first compound 0.316 µM
[4] = second compound 0.0316 µM, first compound 1 µM
[5] = second compound 0.0316 µM, first compound 3.16 µM
[6] = second compound 0.0316 µM, first compound 10 µM
[7] = second compound 0.1 µM, first compound 0.0316 µM
[8] = second compound 0.1 µM, first compound 0.1 µM
[9] = second compound 0.1 µM, first compound 0.316 µM
[10] = second compound 0.1 µM, first compound 1 µM
[11] = second compound 0.1 µM, first compound 3.16 µM
[12] = second compound 0.1 µM, first compound 10 µM
[13] = second compound 0.316 µM, first compound 0.0316 µM
[14] = second compound 0.316 µM, first compound 0.1 µM
[15] = second compound 0.316 µM, first compound 0.316 µM
[16] = second compound 0.316 µM, first compound 1 µM
[17] = second compound 0.316 µM, first compound 3.16 µM
[18] = second compound 0.316 µM, first compound 10 µM
[19] = second compound 1 µM, first compound 0.0316 µM
[20] = second compound 1 µM, first compound 0.1 µM
[21] = second compound 1 µM, first compound 0.316 µM
[22] = second compound 1 µM, first compound 1 µM
[23] = second compound 1 µM, first compound 3.16 µM
[24] = second compound 1 µM, first compound 10 µM
[25] = second compound 3.16 µM, first compound 0.0316 µM
[26] = second compound 3.16 µM, first compound 0.1 µM
[27] = second compound 3.16 µM, first compound 0.316 µM
[28] = second compound 3.16 µM, first compound 1 µM
[29] = second compound 3.16 µM, first compound 3.16 µM
[30] = second compound 3.16 µM, first compound 10 µM
[31] = second compound 10 µM, first compound 0.0316 µM
[32] = second compound 10 µM, first compound 0.1 µM
[33] = second compound 10 µM, first compound 0.316 µM
[34] = second compound 10 µM, first compound 1 µM
[35] = second compound 10 µM, first compound 3.16 µM
[36] = second compound 10 µM, first compound 10 µM
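Further: spheroids exposed to compounds for one week before readout.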
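Wherever viability, T/C is given: luminescence used as stand-in measure of viable cells; 100% = DMSO vehicle control viability.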

## CC(C)n1c(=O)n(C)c2cnc3cc(F)c(-c4ccc(OCCCN5CCCCC5)nc4)cc3c21 + Nc1ccc(C#CCN(C(=O)Cc2ncc(C(F)(F)F)cc2C(F)(F)F)c2ccc(F)cc2)nn1
Second compound 0.0316 µM
  pIC50: < 5.00
Second compound 0.1 µM
  pIC50: < 5.00
Second compound 0.316 µM
  pIC50: < 5.00
Second compound 1 µM
  pIC50: < 5.00
Second compound 3.16 µM
  pIC50: < 5.00
Second compound 10 µM
  pIC50: < 5.00
[1]
  viability, T/C: 102%
[2]
  viability, T/C: 107%
[3]
  viability, T/C: 105%
[4]
  viability, T/C: 122%
[5]
  viability, T/C: 104%
[6]
  viability, T/C: 103%
[7]
  viability, T/C: 103%
[8]
  viability, T/C: 105%
[9]
  viability, T/C: 108%
[10]
  viability, T/C: 96.1%
[11]
  viability, T/C: 101%
[12]
  viability, T/C: 97.6%
[13]
  viability, T/C: 102%
[14]
  viability, T/C: 113%
[15]
  viability, T/C: 101%
[16]
  viability, T/C: 105%
[17]
  viability, T/C: 103%
[18]
  viability, T/C: 108%
[19]
  viability, T/C: 102%
[20]
  viability, T/C: 105%
[21]
  viability, T/C: 96.4%
[22]
  viability, T/C: 101%
[23]
  viability, T/C: 111%
[24]
  viability, T/C: 108%
[25]
  viability, T/C: 101%
[26]
  viability, T/C: 107%
[27]
  viability, T/C: 110%
[28]
  viability, T/C: 111%
[29]
  viability, T/C: 108%
[30]
  viability, T/C: 115%
[31]
  viability, T/C: 108%
[32]
  viability, T/C: 109%
[33]
  viability, T/C: 117%
[34]
  viability, T/C: 126%
[35]
  viability, T/C: 106%
[36]
  viability, T/C: 117%

## CC1COCCN1c1cc(-c2ccnn2C)c2ccnc(-c3ccn[nH]3)c2n1 (stereo not drawn) + Nc1ccc(C#CCN(C(=O)Cc2ncc(C(F)(F)F)cc2C(F)(F)F)c2ccc(F)cc2)nn1
Second compound 0.0316 µM
  pIC50: 7.37
Second compound 0.1 µM
  pIC50: 7.40
Second compound 0.316 µM
  pIC50: 7.40
Second compound 1 µM
  pIC50: 7.43
Second compound 3.16 µM
  pIC50: 7.49
Second compound 10 µM
  pIC50: > 7.50
[1]
  viability, T/C: 63.7%
[2]
  viability, T/C: 11.2%
[3]
  viability, T/C: 5.02%
[4]
  viability, T/C: 3.87%
[5]
  viability, T/C: 4.17%
[6]
  viability, T/C: 3.9%
[7]
  viability, T/C: 60.3%
[8]
  viability, T/C: 10.8%
[9]
  viability, T/C: 4.23%
[10]
  viability, T/C: 3.18%
[11]
  viability, T/C: 4.26%
[12]
  viability, T/C: 3.58%
[13]
  viability, T/C: 60%
[14]
  viability, T/C: 11.4%
[15]
  viability, T/C: 4.5%
[16]
  viability, T/C: 3.99%
[17]
  viability, T/C: 3.82%
[18]
  viability, T/C: 4%
[19]
  viability, T/C: 56.4%
[20]
  viability, T/C: 8.91%
[21]
  viability, T/C: 4.69%
[22]
  viability, T/C: 3.73%
[23]
  viability, T/C: 3.7%
[24]
  viability, T/C: 3.28%
[25]
  viability, T/C: 51.2%
[26]
  viability, T/C: 9.4%
[27]
  viability, T/C: 5.57%
[28]
  viability, T/C: 3.36%
[29]
  viability, T/C: 3.4%
[30]
  viability, T/C: 4.22%
[31]
  viability, T/C: 42.1%
[32]
  viability, T/C: 10.7%
[33]
  viability, T/C: 5.92%
[34]
  viability, T/C: 3.97%
[35]
  viability, T/C: 3.84%
[36]
  viability, T/C: 4.9%

## COc1ccc([C@@H](O)c2cc(-c3ncnc4cc(N5CCOCC5)ccc34)c(F)cc2Cl)nn1 + Nc1ccc(C#CCN(C(=O)Cc2ncc(C(F)(F)F)cc2C(F)(F)F)c2ccc(F)cc2)nn1
Second compound 0.0316 µM
  pIC50: < 5.00
Second compound 0.1 µM
  pIC50: < 5.00
Second compound 0.316 µM
  pIC50: < 5.00
Second compound 1 µM
  pIC50: < 5.00
Second compound 3.16 µM
  pIC50: < 5.00
Second compound 10 µM
  pIC50: < 5.00
[1]
  viability, T/C: 94.4%
[2]
  viability, T/C: 99.9%
[3]
  viability, T/C: 100%
[4]
  viability, T/C: 106%
[5]
  viability, T/C: 93%
[6]
  viability, T/C: 58.2%
[7]
  viability, T/C: 108%
[8]
  viability, T/C: 109%
[9]
  viability, T/C: 84.7%
[10]
  viability, T/C: 92.4%
[11]
  viability, T/C: 95.2%
[12]
  viability, T/C: 53.2%
[13]
  viability, T/C: 107%
[14]
  viability, T/C: 103%
[15]
  viability, T/C: 107%
[16]
  viability, T/C: 110%
[17]
  viability, T/C: 84.4%
[18]
  viability, T/C: 58%
[19]
  viability, T/C: 98.7%
[20]
  viability, T/C: 88%
[21]
  viability, T/C: 104%
[22]
  viability, T/C: 102%
[23]
  viability, T/C: 91.2%
[24]
  viability, T/C: 51.6%
[25]
  viability, T/C: 102%
[26]
  viability, T/C: 104%
[27]
  viability, T/C: 108%
[28]
  viability, T/C: 106%
[29]
  viability, T/C: 93.3%
[30]
  viability, T/C: 69.1%
[31]
  viability, T/C: 105%
[32]
  viability, T/C: 107%
[33]
  viability, T/C: 102%
[34]
  viability, T/C: 102%
[35]
  viability, T/C: 89.3%
[36]
  viability, T/C: 64.5%

## Cn1ncnc1[C@H]1c2n[nH]c(=O)c3cc(F)cc(c23)N[C@@H]1c1ccc(F)cc1 + Nc1ccc(C#CCN(C(=O)Cc2ncc(C(F)(F)F)cc2C(F)(F)F)c2ccc(F)cc2)nn1
Second compound 0.0316 µM
  pIC50: < 7.00
Second compound 0.1 µM
  pIC50: < 7.00
Second compound 0.316 µM
  pIC50: < 7.00
Second compound 1 µM
  pIC50: < 7.00
Second compound 3.16 µM
  pIC50: < 7.00
Second compound 10 µM
  pIC50: < 7.00
Second compound 0.0316 µM, first compound 0.000316 µM
  viability, T/C: 101%
Second compound 0.0316 µM, first compound 0.001 µM
  viability, T/C: 97.2%
Second compound 0.0316 µM, first compound 0.00316 µM
  viability, T/C: 101%
Second compound 0.0316 µM, first compound 0.01 µM
  viability, T/C: 93.7%
[1]
  viability, T/C: 95.8%
[2]
  viability, T/C: 97.8%
Second compound 0.1 µM, first compound 0.000316 µM
  viability, T/C: 96.7%
Second compound 0.1 µM, first compound 0.001 µM
  viability, T/C: 109%
Second compound 0.1 µM, first compound 0.00316 µM
  viability, T/C: 86.9%
Second compound 0.1 µM, first compound 0.01 µM
  viability, T/C: 92.6%
[7]
  viability, T/C: 99.8%
[8]
  viability, T/C: 94.8%
Second compound 0.316 µM, first compound 0.000316 µM
  viability, T/C: 88.7%
Second compound 0.316 µM, first compound 0.001 µM
  viability, T/C: 102%
Second compound 0.316 µM, first compound 0.00316 µM
  viability, T/C: 88.2%
Second compound 0.316 µM, first compound 0.01 µM
  viability, T/C: 99.6%
[13]
  viability, T/C: 95.5%
[14]
  viability, T/C: 110%
Second compound 1 µM, first compound 0.000316 µM
  viability, T/C: 98.9%
Second compound 1 µM, first compound 0.001 µM
  viability, T/C: 101%
Second compound 1 µM, first compound 0.00316 µM
  viability, T/C: 109%
Second compound 1 µM, first compound 0.01 µM
  viability, T/C: 99.5%
[19]
  viability, T/C: 105%
[20]
  viability, T/C: 120%
Second compound 3.16 µM, first compound 0.000316 µM
  viability, T/C: 97.8%
Second compound 3.16 µM, first compound 0.001 µM
  viability, T/C: 113%
Second compound 3.16 µM, first compound 0.00316 µM
  viability, T/C: 114%
Second compound 3.16 µM, first compound 0.01 µM
  viability, T/C: 91.6%
[25]
  viability, T/C: 101%
[26]
  viability, T/C: 108%
Second compound 10 µM, first compound 0.000316 µM
  viability, T/C: 89.8%
Second compound 10 µM, first compound 0.001 µM
  viability, T/C: 105%
Second compound 10 µM, first compound 0.00316 µM
  viability, T/C: 108%
Second compound 10 µM, first compound 0.01 µM
  viability, T/C: 94.2%
[31]
  viability, T/C: 101%
[32]
  viability, T/C: 105%
